Publication PMC7576608, “Mechanisms of telomerase inhibition by oxidized and therapeutic dNTPs” (Nature Communications, 2020)
Values joined by “and” are separate entries in the source; they are usually repeats but may differ in a detail not shown here. Identical values can stand only once.

Experiments:
telomerase [1] = target: T1, telomerase (Homo sapiens, UniProt O14746); assay: Direct telomerase repeat addition assay with radiolabeled dNTPs: dNTP titration, repeat processivity R1/2; assay type: biochemical; set-up: made in house; anti-FLAG immunopurification, eluted with 3xFLAG peptide; details: for Processivity R 1/2: (TTAGGG)3 primer, remaining three natural dNTPs at cellular concentration
T1 sequence (O14746 whole entry): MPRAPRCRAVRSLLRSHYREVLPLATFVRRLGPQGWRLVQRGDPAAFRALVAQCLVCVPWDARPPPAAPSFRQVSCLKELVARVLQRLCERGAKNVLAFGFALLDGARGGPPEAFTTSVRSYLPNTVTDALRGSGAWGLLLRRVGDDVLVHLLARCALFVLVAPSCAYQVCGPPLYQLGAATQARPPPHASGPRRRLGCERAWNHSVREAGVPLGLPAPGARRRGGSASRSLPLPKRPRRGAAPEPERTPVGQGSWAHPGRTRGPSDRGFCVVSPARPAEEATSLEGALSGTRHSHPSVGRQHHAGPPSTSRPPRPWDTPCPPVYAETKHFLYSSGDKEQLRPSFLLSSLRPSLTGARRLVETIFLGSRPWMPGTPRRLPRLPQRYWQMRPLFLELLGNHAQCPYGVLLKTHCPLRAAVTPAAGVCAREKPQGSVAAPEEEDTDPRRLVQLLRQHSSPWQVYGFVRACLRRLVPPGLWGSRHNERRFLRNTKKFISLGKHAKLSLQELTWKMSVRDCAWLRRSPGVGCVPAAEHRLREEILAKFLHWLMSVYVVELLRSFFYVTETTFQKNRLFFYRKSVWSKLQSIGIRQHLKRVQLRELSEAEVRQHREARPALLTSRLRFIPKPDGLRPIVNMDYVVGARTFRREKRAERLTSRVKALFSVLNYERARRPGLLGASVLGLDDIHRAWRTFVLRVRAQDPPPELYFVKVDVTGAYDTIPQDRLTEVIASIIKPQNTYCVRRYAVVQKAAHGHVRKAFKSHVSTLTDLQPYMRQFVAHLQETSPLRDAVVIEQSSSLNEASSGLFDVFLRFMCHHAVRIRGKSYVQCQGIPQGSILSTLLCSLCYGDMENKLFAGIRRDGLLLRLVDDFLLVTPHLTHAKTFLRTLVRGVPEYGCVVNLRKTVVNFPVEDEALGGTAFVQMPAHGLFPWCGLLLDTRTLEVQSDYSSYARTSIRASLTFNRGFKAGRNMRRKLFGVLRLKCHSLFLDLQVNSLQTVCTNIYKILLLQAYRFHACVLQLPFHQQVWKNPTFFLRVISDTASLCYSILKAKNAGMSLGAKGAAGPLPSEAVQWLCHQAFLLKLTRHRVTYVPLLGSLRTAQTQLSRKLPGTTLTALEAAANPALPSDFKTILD
Experimental: This preparation, termed super telomerase, has kinetic properties similar to endogenous telomerase (Supplementary Fig. 1)[29]–[31]. […] Repeat processivity was measured using the convention of calculating the number of repeats synthesized before half of the DNA substrates dissociate from telomerase[33] (Supplementary Fig. 2). 8-oxo-dGTP served as a control since it is an established telomerase chain terminator[12].
Fig. 2 Oxidized and therapeutic dNTPs inhibit telomerase processivity. […] The loading control (*) was a ^32P-end labeled 18-mer oligonucleotide. Numbers on the left indicate the number of added repeats; letters on the right indicate template residue. Images are representative of three independent experiments.
The telomerase assay was as described. […] Reactions containing the modified dNTPs (Trilink Biotechnologies) substituted for their natural dNTP analog are indicated in the figure legends. The reactions were started by the addition of 3 μl (~35 fmol) of immunopurified telomerase eluent, incubated at 37 °C for 1 h, then terminated with 2 μl of […] EDTA and heat inactivated at 65 °C for 20 min. ^32P-end labeled 18-mer loading control (8 fmol) was added to the terminated reactions before purification with an Illustra Microspin G-25 column (GE Healthcare). An equal volume of loading buffer (94% formamide, 0.1× TBE, 0.1% bromophenol blue, 0.1% xylene cyanol) was added to the reaction eluent from the G-25 spin column. The samples were heat denatured for 10 min at 100 °C and loaded onto a 14% denaturing polyacrylamide gel (7 M urea, 1× TBE) and electrophoresed for 90 min at constant 38 W. Samples were imaged using a Typhoon phosphorimager (GE Healthcare).
The processivity was calculated as described[40],[67]. Repeat processivity from the direct telomerase extension assays was calculated as R1/2 (equivalent to the half-time for decay in an exponential time course), which represents the median length of DNA product formed, expressed in terms of number of telomere repeats. First, the total volume counts for each product band extend by one or more telomere repeats were obtained using Image Quant TL. The volume counts were then normalized by dividing by the number of radiolabeled guanosines incorporated into the extended products based on the number of repeats added, termed corrected volume (corr vol). The “percent left behind” (%LB) was calculated for each product band by summing the counts for that product band and for every product band below (shorter products), divided by the total counts for the lane, and then multiplied by 100. The natural log of (100−%LB) was calculated and then plotted vs. repeat number for each product length. A linear regression line was fit to the data to determine the slope of the line. The R1/2 value was calculated by dividing −ln(2) by the slope of each fitted line (R1/2 = −ln(2)/slope).
Number of Repeats Number of Repeats Number of Repeats Number of Repeats
Supplementary Fig 2.Telomerase dNTP titrations and processivity calculations. Telomerase reactions were conducted with (TTAGGG) 3 primer 1 and cellular-concentration dNTPs except that the […]
The loading control (LC) was a 32P-end labeled 18-mer. Numbers on the left indicate the number of added repeats. (d) Processivity was calculated as R1/2 (see Methods). (e) The natural log of (100-%LB) was plotted vs repeat number. A straight line was fit to the data and the R1/2 was calculated by dividing –ln(2) by the slope of each line. Plots shown from one experiment. Images ( a-c) and plots ( e) are representative of, and data are mean + s. d. (d) from, three independent experiments. Source data are provided as a Source Data file.
(1 picture or pasted object on this page, not shown here)

telomerase [2] = target: T1, telomerase; assay: Telomerase extension after insertion of modified dNTP (percent of product terminated at each template position); assay type: biochemical; set-up: made in house; anti-FLAG immunopurification, eluted with 3xFLAG peptide; details: for Percent of Total Product: Fig 4a, Primer 3, 50 μM each dTTP, dGTP and dATP or 2-OH-dATP, Mean
Experimental: Direct telomerase assays were conducted with 5 nM ^32P-end labeled primer a and d Primer 3 (AGGGTT)3, b Primer 1 (TTAGGG)3, or c Primer 2 […]. […] Products were separated on denaturing gels. Letters on the y-axis of the graph indicate the template base; P indicates unextended 18-mer primer. Graphs represent percent of product terminated at each template position as a function of total products. Images are representative of, and data are the mean ± s.d. from, three independent experiments. Source data are provided as a Source Date file.
The reactions were started by the addition of 3 μl of immunopurified telomerase eluent, incubated at 37 °C for 1 h, then terminated with 2 μl of […] and heat inactivated at 65 °C for 20 min. An equal volume of loading buffer (94% formamide, 0.1× TBE, 0.1% bromophenol blue, 0.1% xylene cyanol) was added to the reaction eluent. The samples were heat denatured for 10 min at 100 °C and loaded onto a 14% denaturing acrylamide gel (7 M urea, 1× TBE) and electrophoresed for 90 min at constant 38 W. Samples were imaged using a Typhoon phosphorimager (GE Healthcare). Percent primer extension was calculated with ImageQuant TL 8.2 by measuring the intensity of each product band and dividing by the total radioactivity in the lane or total products, as indicated in the figure legends.

[3] = indicated dNTP at 0.5 μM, n1-n3

Nc1nc(O)nc2c1ncn2C1CC(O)C(COP(=O)(O)OP(=O)(O)OP(=O)(O)O)O1 (stereo not shown) [2-OH-dATP]
YIntercept (best-fit line of ln(100-%LB) vs repeat number) (telomerase [1]; 2-OH-dATP 0.5μM, single experiments): 2.12 and 4.01 and 2.03 | YIntercept (best-fit line of ln(100-%LB) vs repeat number) (telomerase [1]; 2-OH-dATP 1μM, single experiments): 2.17 and 3.36 and 2.82 | ln(100-%LB) (telomerase [1]; 2-OH-dATP 5μM, 1 telomere repeat, single experiments): 1.89 and 1.96 and 2.94 | YIntercept (best-fit line of ln(100-%LB) vs repeat number) (telomerase [1]; 2-OH-dATP 5μM, single experiments): 3.87 and 3.78 and 4.14 | ln(100-%LB) (telomerase [1]; 2-OH-dATP 25μM, 1 telomere repeat, single experiments): 2.24 and 2.45 | ln(100-%LB) (telomerase [1]; 2-OH-dATP 25μM, 2 telomere repeats, single experiments): 0.15 and 0.23 | YIntercept (best-fit line of ln(100-%LB) vs repeat number) (telomerase [1]; 2-OH-dATP 25μM, single experiments): 3.63 and 4.14 | Processivity R 1/2 (telomerase [1]; indicated dNTP at 0.5 μM, Mean): 0.46 | Processivity R 1/2 (telomerase [1]; [3]): 0.46 and 0.39 and 0.53 | Processivity R 1/2 (telomerase [1]; indicated dNTP at 1 μM, Mean): 0.43 | Processivity R 1/2 (telomerase [1]; indicated dNTP at 1 μM, n1-n3): 0.30 and 0.39 and 0.59 | Processivity R 1/2 (telomerase [1]; indicated dNTP at 5 μM, Mean): 0.57 | Processivity R 1/2 (telomerase [1]; indicated dNTP at 5 μM, n1-n3): 0.42 and 0.69 and 0.61 | Processivity R 1/2 (telomerase [1]; indicated dNTP at 24 μM, Mean): 0.66 | Processivity R 1/2 (telomerase [1]; indicated dNTP at 24 μM, n1-n3): 0.46 and 0.70 and 0.83 | Extension after insertion of the modified dNTP (in words) (telomerase [2]; 50 μM each dNTP, analog substituted for natural dNTP): translocation to add the next repeat is greatly compromised | Percent of Total Product (telomerase [2]; terminated at rA3): 5.06% | Percent of Total Product (telomerase [2]; terminated at rA4): 1.19% | Percent of Total Product (telomerase [2]; terminated at rC1): 1.62% | Percent of Total Product (telomerase [2]; terminated at rC2): 10.51% | Percent of Total Product (telomerase [2]; terminated at rC6): 68.71% | Percent of Total Product (telomerase [2]; terminated at rU5 (first)): 12.42% | Percent of Total Product (telomerase [2]; terminated at rU5 (second, after translocation)): 0.49%

Nc1ncnc2c1[nH]c(=O)n2C1CC(O)C(COP(=O)(O)OP(=O)(O)OP(=O)(O)O)O1 (stereo not shown) [8-oxo-dATP]
Processivity R 1/2 (telomerase [1]; indicated dNTP at 0.5 μM, Mean): 0 | Processivity R 1/2 (telomerase [1]; [3]): 0 | Processivity R 1/2 (telomerase [1]; indicated dNTP at 1 μM, Mean): 0 | Processivity R 1/2 (telomerase [1]; indicated dNTP at 1 μM, n1-n3): 0 | Processivity R 1/2 (telomerase [1]; indicated dNTP at 5 μM, Mean): 0 | Processivity R 1/2 (telomerase [1]; indicated dNTP at 5 μM, n1-n3): 0 | Processivity R 1/2 (telomerase [1]; indicated dNTP at 24 μM, Mean): 0 | Processivity R 1/2 (telomerase [1]; indicated dNTP at 24 μM, n1-n3): 0

Nc1nc2c([nH]c(=O)n2C2CC(O)C(COP(=O)(O)OP(=O)(O)OP(=O)(O)O)O2)c(=O)[nH]1 (stereo not shown) [8-oxo-dGTP]
Processivity R 1/2 (telomerase [1]; indicated dNTP at 0.5 μM, Mean): 0 | Processivity R 1/2 (telomerase [1]; [3]): 0 | Processivity R 1/2 (telomerase [1]; indicated dNTP at 1 μM, Mean): 0 | Processivity R 1/2 (telomerase [1]; indicated dNTP at 1 μM, n1-n3): 0 | Processivity R 1/2 (telomerase [1]; indicated dNTP at 5 μM, Mean): 0 | Processivity R 1/2 (telomerase [1]; indicated dNTP at 5 μM, n1-n3): 0 | Processivity R 1/2 (telomerase [1]; indicated dNTP at 24 μM, Mean): 0 | Processivity R 1/2 (telomerase [1]; indicated dNTP at 24 μM, n1-n3): 0

Cc1cn([C@H]2C[C@H](N=[N+]=[N-])[C@@H](CO[P@](=O)(O)O[P@](=O)(O)OP(=O)(O)O)O2)c(=O)[nH]c1=O [AZT-TP]
Processivity R 1/2 (telomerase [1]; indicated dNTP at 0.5 μM, Mean): 0 | Processivity R 1/2 (telomerase [1]; [3]): 0 | Processivity R 1/2 (telomerase [1]; indicated dNTP at 1 μM, Mean): 0 | Processivity R 1/2 (telomerase [1]; indicated dNTP at 1 μM, n1-n3): 0 | Processivity R 1/2 (telomerase [1]; indicated dNTP at 5 μM, Mean): 0 | Processivity R 1/2 (telomerase [1]; indicated dNTP at 5 μM, n1-n3): 0 | Processivity R 1/2 (telomerase [1]; indicated dNTP at 24 μM, Mean): 0 | Processivity R 1/2 (telomerase [1]; indicated dNTP at 24 μM, n1-n3): 0

Cc1cn(C2CC(O)C(COP(=O)(O)OP(=O)(O)OP(=O)(O)O)O2)c(=O)[nH]c1=O (stereo not shown) [dTTP]
YIntercept (line, best-fit value) of ln(100-%LB) vs # telomere repeats (telomerase [1]; 0.5μM titrated dNTP): 4.06 and 3.53 and 2.25 | YIntercept (line, best-fit value) of ln(100-%LB) vs # telomere repeats (telomerase [1]; 1μM titrated dNTP): 3.61 and 3.41 and 1.82 | ln(100-%LB) (telomerase [1]; 1μM titrated dNTP, telomere repeat 1): 3.41 and 3.35 and 1.72 | ln(100-%LB) (telomerase [1]; 5μM titrated dNTP, telomere repeat 1): 1.67 and 3.31 and 3.28 | YIntercept (line, best-fit value) of ln(100-%LB) vs # telomere repeats (telomerase [1]; 25μM titrated dNTP): 3.33 and 3.39 and 1.96 | ln(100-%LB) (telomerase [1]; 25μM titrated dNTP, telomere repeat 1): 3.18 and 3.21 and 2.13 | ln(100-%LB) (telomerase [1]; 25μM titrated dNTP, telomere repeat 2): 2.32 and 2.36 and 1.43 | ln(100-%LB) (telomerase [1]; 25μM titrated dNTP, telomere repeat 3): 1.64 and 1.63 and 0.90 | Processivity R 1/2 (telomerase [1]; indicated dNTP at 0.5 μM, Mean): 1.28 | Processivity R 1/2 (telomerase [1]; [3]): 1.27 and 1.42 and 1.15 | Processivity R 1/2 (telomerase [1]; indicated dNTP at 1 μM, Mean): 1.90 | Processivity R 1/2 (telomerase [1]; indicated dNTP at 1 μM, n1-n3): 1.45 and 1.97 and 2.27 | Processivity R 1/2 (telomerase [1]; indicated dNTP at 5 μM, Mean): 2.06 | Processivity R 1/2 (telomerase [1]; indicated dNTP at 5 μM, n1-n3): 1.59 and 1.96 and 2.62 | Processivity R 1/2 (telomerase [1]; indicated dNTP at 24 μM, Mean): 1.95

O=c1[nH]cnc2c1ncn2C1CCC(COP(=O)(O)OP(=O)(O)OP(=O)(O)O)O1 (stereo not shown) [ddITP]
Processivity R 1/2 (telomerase [1]; indicated dNTP at 0.5 μM, Mean): 0 | Processivity R 1/2 (telomerase [1]; [3]): 0 | Processivity R 1/2 (telomerase [1]; indicated dNTP at 1 μM, Mean): 0 | Processivity R 1/2 (telomerase [1]; indicated dNTP at 1 μM, n1-n3): 0 | Processivity R 1/2 (telomerase [1]; indicated dNTP at 5 μM, Mean): 0 | Processivity R 1/2 (telomerase [1]; indicated dNTP at 5 μM, n1-n3): 0 | Processivity R 1/2 (telomerase [1]; indicated dNTP at 24 μM, Mean): 0 | Processivity R 1/2 (telomerase [1]; indicated dNTP at 24 μM, n1-n3): 0
